24 molecules from US5789434A, “Derivatives of substituted 4-biarylbutyric acid as matrix metalloprotease inhibitors” (priority 1995, dated 1998) can be followed below.

Structures are written as SMILES.

Common to all, as to assay type: biochemical
The target in assay [1] is T1, MMP-2 (Homo sapiens, UniProt P08253).
T1 sequence (P08253 110-660): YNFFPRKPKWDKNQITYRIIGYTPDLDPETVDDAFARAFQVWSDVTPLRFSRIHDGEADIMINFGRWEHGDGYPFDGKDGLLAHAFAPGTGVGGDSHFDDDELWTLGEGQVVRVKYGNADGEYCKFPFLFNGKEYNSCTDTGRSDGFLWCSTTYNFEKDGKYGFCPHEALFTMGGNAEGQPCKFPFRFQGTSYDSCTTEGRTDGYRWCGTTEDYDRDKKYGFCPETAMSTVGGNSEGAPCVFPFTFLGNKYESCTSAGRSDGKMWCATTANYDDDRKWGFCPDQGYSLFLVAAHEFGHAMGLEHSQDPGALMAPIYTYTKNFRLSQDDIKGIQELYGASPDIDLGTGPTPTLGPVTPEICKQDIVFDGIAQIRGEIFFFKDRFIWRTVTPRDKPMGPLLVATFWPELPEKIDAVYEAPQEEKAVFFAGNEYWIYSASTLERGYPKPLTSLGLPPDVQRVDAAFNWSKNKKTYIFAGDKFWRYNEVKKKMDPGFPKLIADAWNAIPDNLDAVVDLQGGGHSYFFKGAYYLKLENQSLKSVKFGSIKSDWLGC
As to the kind of experiment: Automated MMP Profiling Assay, MMP-2 fluorogenic. As to conditions: for IC50: 96-well automated, P218, read-out: MMP-2 Fluorogenic IC50 (profiling).

The target in assay [2] is T2, MMP-9 (Homo sapiens, UniProt P14780).
T2 construct: from tissue; host or cells: human polymorphonuclear leukocytes (PMN) from whole blood (New York Blood Center), PMA-stimulated supernatant
The assay is described as follows: Automated MMP Profiling Assay, MMP-9 fluorogenic. As to conditions: for IC50: 96-well automated, P218.

Assay [3] has as its target T3, MMP-3 (Homo sapiens, UniProt P08254).
T3 construct: Truncated Prostromelysin-257 was expressed in a soluble form in E.coli; made in house; host or cells: E. coli
As to the kind of experiment: Automated MMP Profiling Assay, MMP-3 fluorogenic. As to conditions: for IC50: 96-well automated, P218. The text has this:
This assay with each invention compound was run with the three enzymes MMP-3, MMP-9 and MMP-2 in parallel as adapted for a 96-well microtitre plate using a Hamilton A® workstation.

T2 sequence (P14780 107-707 limits assumed): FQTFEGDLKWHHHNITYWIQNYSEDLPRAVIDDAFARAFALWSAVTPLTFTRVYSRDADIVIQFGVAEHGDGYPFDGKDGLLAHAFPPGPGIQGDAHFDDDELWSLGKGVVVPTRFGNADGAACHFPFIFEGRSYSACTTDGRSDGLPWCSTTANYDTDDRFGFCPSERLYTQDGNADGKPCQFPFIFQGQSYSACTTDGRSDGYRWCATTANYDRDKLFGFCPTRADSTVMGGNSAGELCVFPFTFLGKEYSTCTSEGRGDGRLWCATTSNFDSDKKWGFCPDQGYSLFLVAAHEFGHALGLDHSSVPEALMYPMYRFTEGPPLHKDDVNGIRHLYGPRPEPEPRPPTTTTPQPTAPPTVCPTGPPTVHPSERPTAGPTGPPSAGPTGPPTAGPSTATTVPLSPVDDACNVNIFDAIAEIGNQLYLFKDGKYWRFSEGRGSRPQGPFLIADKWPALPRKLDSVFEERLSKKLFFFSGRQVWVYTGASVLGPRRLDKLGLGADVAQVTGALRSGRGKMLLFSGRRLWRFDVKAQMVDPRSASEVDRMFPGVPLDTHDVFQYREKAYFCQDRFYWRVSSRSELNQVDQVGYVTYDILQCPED
T3 sequence (P08254 100-274 limits assumed): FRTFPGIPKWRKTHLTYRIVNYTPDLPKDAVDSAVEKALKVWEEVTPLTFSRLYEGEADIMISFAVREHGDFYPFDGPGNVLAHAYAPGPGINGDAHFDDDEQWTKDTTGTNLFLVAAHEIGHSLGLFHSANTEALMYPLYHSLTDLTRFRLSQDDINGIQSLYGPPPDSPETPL

Consider `O=C(c1ccc(-c2ccc(Cl)cc2)cc1)[C@H]1CCN(C(=O)CCc2ccccc2)[C@@H]1C(=O)O` [Example 169, L-Proline, 3-[(4'-chloro[1,1'-biphenyl]-4-yl)carbonyl]-1-(1-oxo-3-phenylpropyl)-, trans-], for which the IC50 (as a rule, the point on the concentration scale where inhibition reaches its midpoint) in assay [1] worked out at 80 nM; in assay [2] it was 1080 nM; in assay [3] it was 245 nM.
Taken in the same sequence, the figures for `CCOc1ccc(-c2ccc(C(=O)CC(CCN3C(=O)c4cc5ccccc5cc4C3=O)C(=O)O)cc2)cc1` (stereo not drawn) [Example 429, 2H-Benz[.function.]isoindole-2-butanoic acid, α-[2-(4'-ethoxy[1,1'-biphenyl]-4-yl)-2-oxoethyl]-1,3-dihydro-1,3-dioxo-] were 23 nM, 1.6 nM and 23 nM.
Taken in the same sequence, the figures for `O=C(c1ccc(-c2ccc(Cl)cc2)cc1)C1CCC(Sc2ccccc2)C1C(=O)O` (stereo not drawn) [Example 312, Cyclopentanecarboxylic acid, 2-[(4'-chloro[1,1'-biphenyl]-4-yl)carbonyl]-5-(phenylthio)-, (1α,2β,5α)-] were 60 nM, 871 nM and 80 nM.
Taken in the same sequence, the figures for `O=C(Nc1ccc(-c2ccc(C(=O)CC(CCc3ccccc3)C(=O)O)cc2)cc1)OCc1ccccc1` (stereo not drawn) [Example 137, [1,1'-Biphenyl]-4-butanoic acid, γ-oxo-α-(2-phenylethyl)-4'-[[(phenylmethoxy)carbonyl]amino]-] were 548 nM, 1400 nM and more than 1250 nM.
Take `O=C(CC(CCCc1ccccc1)C(=O)O)c1ccc(-c2ccc(OCc3ccc(F)cc3)cc2)cc1` (stereo not drawn) [Example 107, [1,1'-Biphenyl]-4-butanoic acid, 4'-[(4-fluorophenyl)methoxy]-γ-oxo-α-(3-phenylpropyl)-]: the concentration for half-maximal inhibition (IC50) in assay [1] was 16 nM; in assay [3], 32 nM. 5 µM produced 34% inhibition in assay [2].
Take `O=C(CC(CCc1ccccc1)C(=O)O)c1ccc(-c2ccc(O)cc2)cc1` (stereo not drawn) [Example 155, [1,1'-Biphenyl]-4-butanoic acid, 4'-hydroxy-γ-oxo-α-(2-phenylethyl)-]: the IC50 in assay [1] was 50 nM; in assay [2] it was more than 1250 nM; in assay [3], 777 nM.
Taken in the same sequence, the figures for `O=C(CC(CCN1C(=O)c2ccncc2C1=O)C(=O)O)c1ccc(-c2ccc(Cl)cc2)cc1` (stereo not drawn) [Example 417, 2H-Pyrrolo[3,4-c]pyridine-2-butanoic acid, α-[2-(4'-chloro[1,1'-biphenyl]-4-yl)-2-oxoethyl]-1,3-dihydro-1,3-dioxo-] were 3.7 nM, 12 nM and 32 nM.
Turning to `Cc1ccccc1C(=O)OC[C@@H]1CC[C@H](C(=O)c2ccc(-c3ccc(Cl)cc3)cc2)[C@H]1C(=O)O` (relative stereo) [Example 378, Benzoic acid, 2-methyl-, [2-carboxy-3-[(4'-chloro[1,1'-biphenyl]-4-yl)carbonyl]cyclopentyl]methyl ester, (1α,2β,3α)-], the concentration for half-maximal inhibition (IC50) in assay [1] is 43 nM; in assay [2], 83 nM; in assay [3] it was 77 nM.
Take `Cc1ccc(/C=C/[C@@H]2CC[C@H](C(=O)c3ccc(-c4ccc(Cl)cc4)cc3)[C@H]2C(=O)O)cc1` (relative stereo) [Example 363, Cyclopentanecarboxylic acid, 2-[(4'-chloro[1,1'-biphenyl]-4-yl)carbonyl]-5-[2-(4-methylphenyl)ethenyl]-, [1α,2β,5β(E)]-]: the figures for the IC50 in assay [1] and in assay [3] were less than 5000 nM and 5000 nM, respectively. In addition, in assay [2], testing at 5 µM gave an inhibition of 37%.
Turning to `COC(=O)c1cc(F)ccc1SCC(CC(=O)c1ccc(-c2ccc(Cl)cc2)cc1)C(=O)O` (stereo not drawn) [Example 434, [1,1'-Biphenyl]-4-butanoic acid, 4'-chloro-α-[[[4-fluoro-2-(methoxycarbonyl)phenyl]thio]methyl]-γ-oxo-], the IC50 in assay [1] stood at 61 nM; in assay [2], 1140 nM; in assay [3], 254 nM.
For `O=C(O)[C@H]1[C@H](CSc2ccccc2)CC[C@@H]1C(=O)c1ccc(-c2ccc(Cl)cc2)cc1` (relative stereo) [Example 373, Cyclopentanecarboxylic acid, 2-[(4'-chloro[1,1'-biphenyl]-4-yl)carbonyl]-5-[(phenylthio)methyl]-, (1α,2β,5β)-], the IC50 was 24 nM in assay [1], 113 nM in assay [2] and 56 nM in assay [3].
The corresponding values for `C#Cc1ccc(-c2ccc(C(=O)CC(CCCc3ccccc3)C(=O)O)cc2)cc1` (stereo not drawn) [Example 351, [1,1'-Biphenyl]-4-butanoic acid, 4'-ethynyl-γ-oxo-α-(3-phenylpropyl)-] are 50 nM, 151 nM and 107 nM.
For the molecule `O=C(c1ccc(-c2ccc(Cl)cc2)cc1)[C@H]1CCN(C(=O)Nc2ccccc2)[C@@H]1C(=O)O` [Example 173, L-Proline, 3-[(4'-chloro[1,1'-biphenyl]-4-yl)carbonyl]-1-[(phenylamino)carbonyl]-, trans-], the values for the IC50 in assay [1], in assay [2] and in assay [3] were 104 nM, 814 nM and 119 nM, respectively.
Taken in the same sequence, the figures for `CCN(CC)C(=O)c1cccc(CC[C@H](CC(=O)c2ccc(-c3ccc(Cl)cc3)cc2)C(=O)O)c1` [Example 146] were 538 nM, 2710 nM and 2400 nM.
Turning to `O=C(CC(CCc1ccccc1C(=O)O)C(=O)O)c1ccc(-c2ccc(Cl)cc2)cc1` (stereo not drawn) [Example 143, [1,1'-Biphenyl]-4-butanoic acid, α-[2-(2-carboxyphenyl)ethyl]-4'-chloro-γ-oxo-], the IC50 in assay [1] is 111 nM; in assay [2], 1400 nM; in assay [3] it was 309 nM.
With `O=C(CC(CCNC(=O)c1ccccc1C(=O)O)C(=O)O)c1ccc(-c2ccc(Cl)cc2)cc1` (single isomer, unassigned) [Example 280, [1,1'-Biphenyl]-4-butanoic acid, α-[2-[(2-carboxybenzoyl)amino]ethyl]-4'-chloro-γ-oxo-], the IC50 in assay [1] was 29 nM; in assay [2], 66 nM; in assay [3] it was 146 nM.
The corresponding values for `CCCCOc1ccc(-c2ccc(C(=O)CC(CCc3ccccc3)C(=O)O)cc2)cc1` (stereo not drawn) [Example 160, [1,1'-Biphenyl]-4-butanoic acid, 4'-butoxy-γ-oxo-α-(2-phenylethyl)-] are 42 nM, 1060 nM and 147 nM.
The corresponding values for `O=C(CC(CCCc1ccccc1)C(=O)O)c1ccc(-c2ccc(OCC3CCCCC3)cc2)cc1` (stereo not drawn) [Example 93, [1,1'-Biphenyl]-4-butanoic acid, 4'-(cyclohexylmethoxy)-γ-oxo-α-(3-phenylpropyl)-] are 36 nM, more than 1250 nM and 129 nM.
For the molecule `CCOc1ccc(-c2ccc(C(=O)CC(CCN3C(=O)c4ccccc4C3=O)C(=O)O)cc2)cc1` (stereo not drawn) [Example 273, 2H-Isoindole-2-butanoic acid, α-[2-(4'-ethoxy[1,1'-biphenyl]-4-yl)-2-oxoethyl]-1,3-dihydro-1,3-dioxo-], the results for the IC50 in assay [1], in assay [2] and in assay [3] were 2.27 nM, 1.25 nM and 21 nM, respectively.
Taken in the same sequence, the figures for `CCCOc1ccc2c(c1)C(=O)N(CCC(CC(=O)c1ccc(-c3ccc(Cl)cc3)cc1)C(=O)O)C2=O` (stereo not drawn) [Example 406, 2H-Isoindole-2-butanoic acid, α-[2-(4'-chloro[1,1'-biphenyl]-4-yl)-2-oxoethyl]-1,3-dihydro-1,3-dioxo-5-propoxy-] were 17 nM, 1.7 nM and 10.3 nM.
The corresponding values for `O=C(O)[C@H]1[C@H](CSc2nc3ccccc3s2)CC[C@@H]1C(=O)c1ccc(-c2ccc(Cl)cc2)cc1` (relative stereo) [Example 375, Cyclopentanecarboxylic acid, 2-[(2-benzothiazolylthio)methyl]-5-[(4'-chloro[1,1'-biphenyl]-4-yl)carbonyl]-, (1α,2β,5β)-] are 68 nM, 146 nM and 116 nM.
As for `Cc1ccc2c(c1)C(=O)N(CCC(CC(=O)c1ccc(-c3ccc(Cl)cc3)cc1)C(=O)O)C2=O` (stereo not drawn) [Example 416, 2H-Isoindole-2-butanoic acid, α[2-(4'-chloro[1,1'-biphenyl]-4-yl)-2-oxoethyl]-1,3-dihydro-5-methyl-1,3-dioxo-], the IC50 in assay [1] turned out to be 23 nM; in assay [2], 2.5 nM; in assay [3], 9.5 nM.
In the case of `CCCOc1ccc(-c2ccc(C(=O)CC(CCc3ccccc3)C(=O)O)cc2)cc1` (stereo not drawn) [Example 157, [1,1'-Biphenyl]-4-butanoic acid, γ-oxo-α-(2-phenylethyl)-4'-propoxy-], the IC50 in assay [1] is 35 nM; in assay [2] it was 142 nM; in assay [3], 111 nM.
As for `O=C(CC(CCCc1ccccc1)C(=O)O)c1ccc(-c2ccc(C(=O)O)o2)cc1` (stereo not drawn) [Example 69, 2-Furancarboxylic acid, 5-[4-(3-carboxy-1-oxo-6-phenylhexyl)phenyl]-], the inhibition at 5 µM in assay [1] (at 5 μM), in assay [2] and in assay [3] (at 5 μM) was 0% each time.
